In patent US8912207B2, “2-aldoximino-5-fluoropyrimidine derivatives” (Dow AgroSciences, LLP., priority 2009, dated 2014):
Where two headings read alike, the source gives them in different places.

Experiments:
[1] = test system: Mycosphaerella graminicola; anamorph: Septoria tritici; Bayer code SEPTTR; experiment: Fungicidal activity: leaf blotch of wheat, one-day protectant (1DP) and three-day curative (3DC) tests on wheat plants; format: in vivo, Septoria tritici on wheat plants (variety Yuma); conditions: Zymoseptoria tritici, rating of % disease control vs untreated inoculated plants
Experimental: Evaluation of Fungicidal Activity: Leaf Blotch of Wheat (Mycosphaerella graminicola; anamorph: Septoria tritici; Bayer code […]) Wheat plants (variety Yuma) were grown from seed in a greenhouse in 50% mineral soil/50% soil-less Metro mix until the first leaf was fully emerged, with 7-10 seedlings per pot. These plants were inoculated with an aqueous spore suspension of Septoria tritici either prior to or after fungicide treatments. After inoculation the plants were kept in 100% relative humidity (one day in a dark dew chamber followed by two to three days in a lighted dew chamber) to permit spores to germinate and infect the leaf. The plants were then transferred to a greenhouse for disease to develop. The following table presents the activity of typical compounds of the present disclosure when evaluated in these experiments. The effectiveness of the test compounds in controlling disease was determined by assessing the severity of disease on treated plants, then converting the severity to percent control based on the level of disease on untreated, inoculated plants. In each case of Table III the rating scale is as follows: […]

[2] = 24 h, one-day protectant, read-out: SEPTTR 25 ppm 1DP
[3] = 24 h, one-day protectant, read-out: SEPTTR 100 ppm 1DP
[4] = 72 h, three-day curative, read-out: SEPTTR 25 ppm 3DC
[5] = 72 h, three-day curative, read-out: SEPTTR 100 ppm 3DC

SMILES	melting point	pest or weed control at 25 ppm [1, 2]	pest or weed control at 100 ppm [1, 3]	pest or weed control at 25 ppm [1, 4]	pest or weed control at 100 ppm [1, 5]
Nc1nc(ON=Cc2ccccc2Cl)ncc1F [Compound 5, 2-chlorobenzaldehyde O-(4-amino-5-fluoropyrimidin-2-yl)oxime]	220 to 230 °C (dec.)	76 to 100%	76 to 100%	76 to 100%	76 to 100%
Cc1ccc(C=NOc2ncc(F)c(/N=C/N(C)C)n2)cc1 [Compound 15]	247 to 253 °C (dec.)	76 to 100%	76 to 100%	76 to 100%	76 to 100%
Fc1ccccc1CNc1nc(ON=Cc2ccc(Cl)cc2)ncc1F [Compound 18]	98 to 103 °C	76 to 100%	76 to 100%	0 to 25%	0 to 25%
CC=NOc1ncc(F)c(N)n1 [Compound 10]	102 to 105 °C	76 to 100%	76 to 100%	76 to 100%	76 to 100%
Cc1ccc(C=NOc2ncc(F)c(N)n2)cc1 [Compound 11]	201 to 220 °C (dec.)	76 to 100%	76 to 100%	76 to 100%	76 to 100%
Fc1cnc(ON=Cc2ccc(Cl)cc2)nc1NCc1ccccc1 [Compound 22]	111 to 114 °C	0 to 25%	76 to 100%	0 to 25%	0 to 25%
COc1ccc(C=NOc2ncc(F)c(/N=C/N(C)C)n2)cc1 [Compound 13, N′-{5-Fluoro-2-[1-(4-methoxyphenyl)-methylideneaminooxy]pyrimidin-4-yl}-N,N-dimethylformamidine]	243 to 245 °C (dec.)	76 to 100%	76 to 100%	76 to 100%	76 to 100%
CN(C)/C=N/c1nc(ON=Cc2ccc(Cl)cc2)ncc1F [Compound 2]	230 to 242 °C (dec.)	76 to 100%	76 to 100%	76 to 100%	76 to 100%
CC(C)C=NOc1ncc(F)c(N)n1 [Compound 7]	105 to 107 °C	76 to 100%	76 to 100%	76 to 100%	76 to 100%
COc1ccccc1C=NOc1ncc(F)c(N)n1 [Compound 9]	240 to 250 °C (dec.)	76 to 100%	76 to 100%	76 to 100%	76 to 100%

Now from value to molecule, other results behind:

melting point	SMILES	pest or weed control at 25 ppm [1, 2]	pest or weed control at 100 ppm [1, 3]	pest or weed control at 25 ppm [1, 4]	pest or weed control at 100 ppm [1, 5]
79 to 83 °C	COc1ccc(CN(C)c2nc(ON=Cc3ccc(Cl)cc3)ncc2F)cc1 [Compound 47]	26 to 50%	26 to 50%	26 to 50%	51 to 75%
115 to 116 °C	CN(Cc1ccc(Cl)cc1)c1nc(ON=Cc2ccc(Cl)cc2)ncc1F [Compound 42]	0 to 25%	26 to 50%	0 to 25%	0 to 25%
79 to 82 °C	CC=NOc1ncc(F)c(NCc2ccc(OC)cc2)n1 [Compound 34]	0 to 25%	26 to 50%	26 to 50%	76 to 100%
200 to 205 °C	CC(C)C=NOc1ncc(F)c(NCc2ccc(Cl)cc2)n1 [Compound 30]	0 to 25%	26 to 50%	0 to 25%	26 to 50%
119 to 121 °C	Fc1cnc(ON=Cc2ccc(Cl)cc2)nc1NCc1ccc(Cl)cc1 [Compound 27]	0 to 25%	26 to 50%	26 to 50%	51 to 75%
46 to 50 °C	COc1ccc(C=NOc2ncc(F)c(N(C)Cc3ccc(OC)cc3)n2)cc1 [Compound 48]	0 to 25%	0 to 25%	26 to 50%	51 to 75%
180 to 194 °C	COc1ccc(C=NOc2ncc(F)c(NCc3ccccc3)n2)cc1 [Compound 23]	0 to 25%	76 to 100%	26 to 50%	26 to 50%
